The values that follow come from publication PMC8161026, “Synthesis and Anticancer Activity Evaluation of 5-[2-Chloro-3-(4-nitrophenyl)-2-propenylidene]-4-thiazolidinones” (Molecules, 2021).

Structures are written as SMILES.

The nature of one series: in vitro. The settings on record: human. Here is the method:
(§1) Another part of our study was to determine the influence of compounds 2f, 2i, 2j, and 2h on normal human blood lymphocytes (Figure 5). […] Thus, normal blood lymphocytes are blood cells, as well as cells of leukemia cell lines, therapeutic index (TI) of compounds 2f, 2h, and 2j was calculated as GI50 (normal blood lymphocyte)/GI50 (leukemia cell line) (Table 5).
(§2) Figure 5 Human lymphocyte viability after 48 h of 2f, 2i, 2j, 2h, and Ciminalum drug exposure was estimated by MTT assay.
(§3) The assay was performed by using 3-(4,5-dimethylthiazole-2-yl)- 2,5-diphenyltetrazolium bromide (MTT). Confluent cells, cultured for 24 h with 0.1, 1, 5, 10, 20, 30, and 100 µM concentrations of studied compounds in 24-well plates were washed with PBS. MTT was dissolved in PBS, and 25 µL were added to each well. Plates were incubated for 4 h at 37 °C in 5% CO2 in an incubator. The medium with MTT was removed, and 1 mL of DMSO was added to the attached cells. Furthermore, cells were incubated for 5–10 min in RT and then 10 µl of Sorensen buffer was added to each well. The absorbance of converted dye in living cells was measured at a wavelength of 570 nm. The cell viability of breast cancer cells, gastric cancer cells, and human colon cancer cells cultured in the presence of ligands was calculated as percent of control cells.
(§4) First, 20 mL of venous blood was taken from volunteers (Ethical protocol number 2, 27 January 2019) and collected in the presence of 200 μL of undiluted fresh heparin (1/100). Sterile blood was diluted 2 times with 0.9% NaCl under the sterile conditions. Isolation of lymphocytes was performed in a density gradient of ficol-verografin using the protocol of the manufacturer (Lympoprep, NYCOMED PHARMA AS, Oslo Norway). The resulting lymphocytes were resuspended in the RPMI-1640 medium and cultured for several days (up to 10 days). To separate the lymphocytes from the monocytes, cell suspension was left for 24 h. After 24 h of culture, monocytes were attached, while lymphocytes were transferred to a fresh Falcon tube (15 mL). To stimulate the proliferation of lymphocytes, they were cultured on CD3+ antibody-coated plastic plate in the RPMI-1640 medium supplemented with 20% FBS.

For another series, the system named is MCF-7 (breast cancer). The experiment in a line: MTT cell viability assay. The class given is cell-based. The settings on record: Homo sapiens, MCF7; MCF-7, MTT, 24 h. Here is the method:
(§5) In the second stage of the research, Ciminalum-thiazolidinone hybrids were investigated for antitumor activity on the lines of gastric cancer (AGS), human colon cancer (DLD-1), and breast cancers (MCF-7 and MDA-MB-231). The study was performed in the MTT assay according to the method described previously. The studied cancer line was sensitive to the action of the studied compounds that inhibited its growth in micromolar ranges of GI50. The hit compounds that inhibited the growth of all four cancer lines with the lowest GI50 values were [5-[2-chloro-3-(4-nitrophenyl)prop-2-enylidene]-rhodanines 2c, 2d, 2h, and 2i (Table 4).

Series [1] concerns DLD-1 (human colon cancer). The experiment in a line: MTT cell viability assay. The class given is cell-based. The settings on record: DLD-1, MTT, 24 h. Here is the method:
as §5

Series [2] has as its system MDA-MB-231 (breast cancer). Kind of series: MTT cell viability assay. The class given is cell-based. The settings on record: Homo sapiens; MDA-MB-231, MTT, 24 h. Here is the method: as §5
Another series has as its system AGS (gastric cancer). The experiment in a line: MTT cell viability assay. It counts as cell-based. The settings on record: Homo sapiens, 24 h. Here is the method:
as §5

Series [3] deals with normal human blood lymphocytes. Kind of series: in vitro. The method, then:
as §1, §2, §3, §4

The test system of series [4] is breast cancer lines MCF-7 and MDA-MB-231. Kind of series: MTT cell viability assay, both breast cancer lines. It counts as cell-based. The settings on record: Homo sapiens; MCF-7 and MDA-MB-231, MTT; read-out: GI50 level. Here is the method:
as §5

For another series, the system named is Jurkat T-cells. Further details: method as in doi:10.7124/bc.00003D. The settings on record: cited from earlier work.

In “in vitro”, `O=C/C(Cl)=C/c1ccc([N+](=O)[O-])cc1` [Ciminalum, (2Z)-2-chloro-3-(4-nitrophenyl)prop-2-enal, reference compound] had a GI50 at 48 h of 10.4 µM.
`O=C1NC(=O)/C(=C/C(Cl)=C/c2ccc([N+](=O)[O-])cc2)S1` [Compound 2a, 5-[(Z,2Z)-2-Chloro-3-(4-nitrophenyl)-2-propenylidene]-2,4-thiazolidinedione] registered a melting point of more than 270 °C. In the series on MCF-7 (breast cancer), the concentration for 50% growth inhibition (GI50) was 18 µM. Also, in [1], growth was halved (GI50) at 14 µM. Growth in [2] was halved (GI50) at 13.9 µM. The GI50 in the series with AGS (gastric cancer) was 18.7 µM.
`O=C(NN1C(=O)/C(=C/C(Cl)=C/c2ccc([N+](=O)[O-])cc2)SC1=S)c1csc2c1CCCC2` [Compound 2d, 5-[(Z,2Z)-2-Chloro-3-(4-nitrophenyl)-2-propenylidene]-4-oxo-3-(4,5,6,7-tetrahydrobenzo[b]thiophen-3-ylcarboxamido)-2-thioxo-4-thiazolidinone] showed a melting point of more than 230 °C. In addition, the 50% growth inhibitory concentration (GI50) in the series with MCF-7 (breast cancer) is 4.45 µM. The GI50 in series [1] stood at 5.47 µM. Further, the GI50 in [2] came out at 3.11 µM. In the series on AGS (gastric cancer), this molecule had a GI50 of 4.08 µM.
The like results for `O=C(Cc1ccccc1Nc1c(Cl)cccc1Cl)NN1C(=O)/C(=C/C(Cl)=C/c2ccc([N+](=O)[O-])cc2)SC1=S` [Compound 2e, N^1-{5-[(Z,2Z)-2-Chloro-3-(4-nitrophenyl)-2-propenylidene]-4-oxo-2-thioxothiazolidin-3-yl}-2-[2-(2,6-dichloroanilino)phenyl]acetamide] were, in that order, 257 to 258 °C, 17.9 µM, 16 µM, 15.8 µM and 17.1 µM.
Molecule `O=C1/C(=C/C(Cl)=C/c2ccc([N+](=O)[O-])cc2)SC(=S)N1CCS(=O)(=O)O` [Compound 2g, 2-{5-[(Z,2Z)-2-Chloro-3-(4-nitrophenyl)-2-propenylidene]-4-oxo-2-thioxothiazolidin-3-yl}-1-ethanesulfonic acid] returned a melting point of more than 260 °C. Further, in the series with MCF-7 (breast cancer), halving of growth (GI50) required 26.4 µM. Further, halving of growth in series [1] (GI50) required 27.5 µM. This molecule yielded a GI50 in series [2] of 16.8 µM. This molecule also yielded a GI50 with AGS (gastric cancer) of 18 µM. In addition, in [3], the “toxicity toward normal human blood lymphocytes” value was “low toxicity”.
Regarding `O=C(O)CCCCCN1C(=O)/C(=C/C(Cl)=C/c2ccc([N+](=O)[O-])cc2)SC1=S` [Compound 2i, 6-{5-[(Z,2Z)-2-Chloro-3-(4-nitrophenyl)-2-propenylidene]-4-oxo-2-thioxothiazolidin-3-yl}hexanoic acid], the melting point was more than 220 °C. Besides, in [4], the GI50 lay in the range of 0.95 to 1.74 µM. This molecule also gave a concentration for 50% growth inhibition (GI50) with MCF-7 (breast cancer) of 1.73 µM. In addition, the 50% growth inhibitory concentration (GI50) in [1] turned out to be 9.22 µM. Besides, it took 0.95 µM to inhibit growth in [2] by half (GI50). This molecule also came in with a GI50 in the series on AGS (gastric cancer) of 3.2 µM. The concentration for 50% growth inhibition (GI50) at 48 h in “in vitro” was more than 100 µM. For the same molecule, the “toxicity toward normal human blood lymphocytes” value in [3] is “low toxicity”.
As to `O=C(O)CC(C(=O)O)N1C(=O)/C(=C/C(Cl)=C/c2ccc([N+](=O)[O-])cc2)SC1=S` (stereo not drawn) [Compound 2k, 2-{5-[(Z,2Z)-2-Chloro-3-(4-nitrophenyl)-2-propenylidene]-4-oxo-2-thioxothiazolidin-3-yl}succinic acid], the melting point fell in the range of 220 to 222 °C. Further, growth in the series on MCF-7 (breast cancer) was halved (GI50) at 18.1 µM. For the same molecule, in series [1], growth was halved (GI50) at 10 µM. In series [2], the concentration for 50% growth inhibition (GI50) amounted to 15.3 µM. This molecule displayed a GI50 in the series with AGS (gastric cancer) of 13.1 µM.
The matching figures for `O=C(O)CCC(C(=O)O)N1C(=O)/C(=C/C(Cl)=C/c2ccc([N+](=O)[O-])cc2)SC1=S` (stereo not drawn) [Compound 2l, 2-{5-[(Z,2Z)-2-Chloro-3-(4-nitrophenyl)-2-propenylidene]-4-oxo-2-thioxothiazolidin-3-yl}pentanedioic acid]: 205 to 207 °C, 21.2 µM, 9.19 µM, 17.5 µM and 12.6 µM.
For the molecule `O=C1NC(=N/c2ccc(F)cc2)/C(=C/C(Cl)=C/c2ccc([N+](=O)[O-])cc2)S1` [III], in the series on Jurkat T-cells, the caspase-7 activation entry is listed as “weak”; the “cleavage of PARP-1 and DFF45” value is recorded as “weak”.
